How the values were obtained:
[1] = tested on: MDA-MB-231; assay: MTT cell viability assay in MDA-MB-231 cells; format: cell-based; settings: 72 h
Procedure: FIG. 2A is a graph comparison of IC50 of Uttroside B in a panel of cancer cells of different origin. The cancer cell lines HeLa, A375, HepG2, MDA-MB-231, HL 60, A549 and HCT116 were treated with Uttroside B as indicated, incubated for 72 h and the cell viability was assessed by MTT assay. FIG. 2B is a graph showing dose dependent effect of Uttroside B in the liver cancer cell lines and in normal immortalized hepatocytes. The liver cancer cell lines HepG2, Hep3B, SKHEP-1, Huh-7 and normal hepatocytes (Chang liver), were treated with Uttroside B incubated for 72 h and the cell viability was assessed by MTT assay. FIG. 2C is a graph comparison of IC50 of Uttroside B with sorafenib. HepG2 cells were treated with Uttroside B as indicated, incubated for 72 h, and the cell viability was assessed by MTT assay. […] The clones developed were counted and plotted as a graph. Colony containing more than four cells was counted as one clone. […]
MTT [3-(4,5-dimethylthiazole-2-yl)-2,5-diphenyltetrazolium bromide] assay is a standard colorimetric assay, suitable for analyzing proliferation, viability, and cytotoxicity. […] After overnight incubation, cells were treated with different concentrations of organic extracts (25-250 μg/ml) of S. nigrum and the isolated compound Uttroside B (250-1250 nM) for 72 h and cytotoxicity was measured. […]

[2] = tested on: Akt in HepG2 cells; assay: Western blot of Akt phosphorylation; format: cell-based, human; settings: HepG2, no basal activation of Akt
Procedure: FIGS. 4A-4E are images showing Uttroside B inhibits MAPK and mTOR signaling, some of the crucial survival signals in liver cancer. […] HepG2 cells were treated with Uttroside B for different time intervals (0-240 min) and the whole cell lysate was resolved on a 10% gel and immunoblotted against phospho-ERK1/2 and phospho-Akt antibodies. Taxol was used as a positive control. […] HepG2 cells were treated with Uttroside B at different time intervals and the whole cell lysate was resolved on an 8% gel and immunoblotted against phospho-mTOR (2448) and phospho-mTOR (2481) antibodies.
Western blot analysis. Approximately 0.5×10^6 cells were grown on 60 mm culture plates and exposed to drugs as indicated for the desired time. The cells were then scraped out, washed in ice cold 1× PBS and pelleted down at 13000 rpm for 2 min. […]

Structure (SMILES): C[C@H](CC[C@@]1(O)O[C@H]2C[C@H]3[C@@H]4CC[C@H]5C[C@@H](O[C@@H]6O[C@H](CO)[C@H](O[C@@H]7O[C@H](CO)[C@@H](O)[C@H](O[C@@H]8OC[C@@H](O)[C@H](O)[C@H]8O)[C@H]7O[C@@H]7O[C@H](CO)[C@@H](O)[C@H](O)[C@H]7O)[C@H](O)[C@H]6O)CC[C@]5(C)[C@H]4CC[C@]3(C)[C@H]2[C@@H]1C)CO[C@@H]1O[C@H](CO)[C@@H](O)[C@H](O)[C@H]1O [Uttroside B]
- IC50 [1]: 1600 nM
- activation of Akt [2]: no significant role in activating Akt pathway
